# Measured values reported in patent US5132304A, “Benzothiazine derivatives and their applications as medicinal products or as synthesis intermediates for medicinal products” (Laboratorios Del Dr. Esteve, S. A., priority 1989, dated 1992).
# Test system: carrageenan-induced oedema in Wistar rats
# Assay: Inhibition of carrageenan-induced oedema in Wistar rats 3 hours after oral administration
# Assay type: in vivo
# Settings: p.o.; for Oedema inhibition: N=10, 3 hours after administration; for ED50: Rattus norvegicus, calculated from results 3 hours after oral administration, 2 hours after carrageenan
# Description: (Inhibition of carrageenan-induced oedema)
# The method followed was that described by Winter et al. (Proc. Soc. Exp. Biol. Med. […]; 111; 544-547).
# Inhibition of carrageenan-induced oedema in Wistar rats 3 hours after administration of the product: […]
SMILES,Oedema inhibition (12.5 mg/kg) [%],Oedema inhibition (25 mg/kg) [%],ED50 [mg/kg],Oedema inhibition (2.5 mg/kg) [%],Oedema inhibition (5 mg/kg) [%],Oedema inhibition (10 mg/kg) [%],Oedema inhibition (40 mg/kg) [%]
"CCCCC1C(=O)N(c2ccccc2)N(c2ccccc2)C1=O [Phenylbutazone, phenylbutazone, reference compound]",46.6,52.1,19.6,–,–,–,–
"CCOC(=O)OC1=C(C(=O)N(C(=O)OCC)c2ccccn2)N(C)S(=O)(=O)c2ccccc21 [Example 1, N-ethoxycarbonyl-N-(2-pyridyl)-4-ethoxy-carbonyloxy-2-methyl-2H-1,2-benzothiazine-3-carboxamide 1,1-dioxide]",–,–,5.6,33.8,54.3,63.8,65.5
